From patent publication US5866570A, “Treatment of vascular leakage and related syndrome such as septic shock by administration of metalloproteinase inhibitors” (Wisconsin Alumni Research Foundation, priority 1994, dated 1999)

Tested on: MDA-MB-231 cells (human breast carcinoma)
Experiment: in vitro invasion assay through matrigel (Transwell)
Assay type: cell-based
Conditions: preliminary screen
Protocol: Razoxane, various bis(hydroxylated)(2,6-dioxopiperazine)s, and various hydrophobic analogs were tested in an in vitro assay for inhibition of tumor cell penetration of a reconstituted basement membrane, matrigel, isolated from the Englegbreth-Holm-Swarm (EHS) tumor (disclosed in Kleinman et al., Biochem. (1982), 24, 6188-6193) first described by Albini et al, Cancer Res. (1987) 47, 3234-3245. An 8 μm pore filter coated with matrigel separates a lower compartment containing a chemoattractant and an upper compartment containing the cells and test compound. In particular, the following compounds were tested: razoxane, (1α, 2α, 4α, 5α)-4,4'-(4,5-dihydroxy-1,2-cyclohexanediyl)bis(2,6-piperazinedione); (1α, 2α, 4β, 5β)-4,4'-(4,5-dihydroxy-1,2-cyclohexanediyl)bis(2,6-piperazinedione);(1β, 2α,4α,5α)-4,4'-(4,5-dihydroxy-1,2-cyclohexanediyl)bis(2,6-piperazinedione); (1β, 2α, 4α,5β)-4,4'-(4,5-dihydroxy-1,2-cyclohexanediyl)bis(2,6piperazinedione); (1α, 2β, 4α,5β)-4,4'-(4,5-dihydroxy-1,2cyclohexanediyl)bis(2,6-piperazinedione); N,N'-cyclohexane-1,2-diylbis[N(2-ethoxy-2-oxoethyl)]glycine; N,N'-4-cyclohexene-1,2-diylbis[N-(2-ethoxy-2-oxoethyl)-glycine ester; (3aα, 5β, 6β, 7aα)-4,4'-(hexahydro-2,2-dimethyl1,3-benzodioxole-5,6-diyl)bis(2,6-piperazinedione); (3aα, 5α, 6α, 7aα)-4,4'-(hexahydro-2,2-dimethyl-1,3-benzodioxole-5,6-diyl)bis(2,6- piperazinedione); (3aα, 5α, 6β, 7aα)-4,4'-(hexahydro-2,2-dimethyl-1,3-benzodioxole-5,6-diyl)bis-2,6- piperazinedione; (3aα, 5β, 6α, 7aβ)-4,4'-(hexahydro-2,2dimethyl-1,3-benzodioxole-5,6-diyl)bis(2,6-piperazinedione); and (3aα, 5α, 6β, 7aβ)-4,4'-(hexahydro-2,2-dimethyl-1,3-benzodioxole-5,6-diyl) bis(2,6piperazinedione). Metastatic cells are able to degrade the basement membrane protein barrier and migrate through the pores of the filter whereas non-metastatic cells remain on the upper surface. The cells that pass to the under side of the filter are then counted under a microscope. […] Variations of this assay have been used to correlate this in vitro invasion with metastatic potential in vivo (Albini et al. (Id.); Hendrix et al. Cancer Letters (1987); 38, 127-247; Repesh L. A., Invasion Metastasis (1989) 9, 192-208 to select for more highly invasive cells (Teranova et al., Proc. Nat. Acad. Sci., (1986), 83, 465, 464; Tullberg et al., Invasion Metastasis, (1989), 9, 13-26; Sefer et al., Biotechniques, (1990), 9, 324-331), and to test compounds for inhibition (Nakajima et al., Cancer Res. (1989), 49, 1698-1756).
This method has been improved to increase the number of assays which may be performed and analyzed per day. In particular, such improvement comprises the use of disposable Transwells (Costar) units described by Repesh et al., Invasion Metastasis, (1989), 9, 192-208, which consist of an 8 μm pore filter attached to an insert that fits in a 24 well culture plate. Matrigel concentration is titrated from zero to complete inhibition of motility of each invasive cell line used in the assay and for each batch of matrigel. The matrigel concentration which yields 50% or greater inhibition of motility in a 6 hr assay (usually from 15 to 50 μg of protein per filter) is chosen for determination of invasion. Motility of cells through the 8 μm filters is not by passive diffusion since the pore size is smaller than the cells, and is determined in the same chamber in the absence of matrigel. Motility is stimulated two-fold by the presence of fibroblast conditioned medium (3T3 cells) as a chemoattractant (data not shown). The cell lines used are HT-1080, a human fibrosarcoma, and MDA-MB-231, a human breast carcinoma (both available from the American Type Tissue Culture). These cell lines express both the 72 kD and the 92 kD collagenase type IV as determined by zymography (data not shown).
For inhibition studies, 5×10^5 cells are plated in 200 μl of DMEM+0.1% BSA+the inhibitor (or appropriate solvent control) into the upper chamber of the Transwell. […]

In the case of `CC1(C)O[C@H]2C[C@H](N3CC(=O)NC(=O)C3)[C@@H](N3CC(=O)NC(=O)C3)C[C@@H]2O1` (relative stereo) [Compound 80, (3aα, 5β, 6α, 7aβ)-4,4'-(hexahydro-2,2-dimethyl-1,3-benzodioxole-5,6-diyl)bis(2,6-piperazinedione)], the inhibition of invasion is reported as “inhibit invasion” and the “effect on cell motility” value (no matrigel) is reported as “without inhibiting cell motility”.
